Experimental data from PMC2778857 (Biochemistry, 2009).
Residue numbers refer to the chain shown, from its start.

Assays:
Assay in all cases: titration with apoprotein, FMN absorbance or fluorescence
[1] = target: T1, FMN-binding domain (FMN domain) of flavocytochrome P450BM-3 (BM3) (Priestia megaterium, UniProt P14779, Y537H)
T1 sequence (P14779 472-650 Y537H): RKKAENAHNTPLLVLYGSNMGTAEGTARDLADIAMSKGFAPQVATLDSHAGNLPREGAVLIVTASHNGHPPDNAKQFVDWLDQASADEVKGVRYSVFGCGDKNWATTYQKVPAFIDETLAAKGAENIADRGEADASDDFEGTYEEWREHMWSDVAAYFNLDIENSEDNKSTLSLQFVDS

[2] = target: T2, FMN-binding domain (FMN domain) of flavocytochrome P450BM-3 (BM3) (Priestia megaterium, UniProt P14779, N538A)
T2 sequence (P14779 472-650 N538A): T1 sequence (P14779 472-650 Y537H) with H66Y, N67A

[3] = target: T3, FMN-binding domain (FMN domain) of flavocytochrome P450BM-3 (BM3) (Priestia megaterium, UniProt P14779, G539A/N538G)
T3 sequence (P14779 472-650 N538G/G539A): T1 sequence (P14779 472-650 Y537H) with H66Y, N67G, G68A

[4] = target: T4, FMN-binding domain (FMN domain) of flavocytochrome P450BM-3 (BM3) (Priestia megaterium, UniProt P14779, P542A)
T4 sequence (P14779 472-650 P542A): T1 sequence (P14779 472-650 Y537H) with H66Y, P71A

[5] = target: T5, FMN-binding domain (FMN domain) of flavocytochrome P450BM-3 (BM3) (Priestia megaterium, UniProt P14779, P541A)
T5 sequence (P14779 472-650 P541A): T1 sequence (P14779 472-650 Y537H) with H66Y, P70A

[6] = target: T6, FMN-binding domain (FMN domain) of flavocytochrome P450BM-3 (BM3) (Priestia megaterium, UniProt P14779, N538G)
T6 sequence (P14779 472-650 N538G): T1 sequence (P14779 472-650 Y537H) with H66Y, N67G

[7] = target: T7, FMN-binding domain (FMN domain) of flavocytochrome P450BM-3 (BM3) (Priestia megaterium, UniProt P14779, Y537R)
T7 sequence (P14779 472-650 Y537R): T1 sequence (P14779 472-650 Y537H) with H66R

[8] = target: T8, FMN-binding domain (FMN domain) of flavocytochrome P450BM-3 (BM3) (Priestia megaterium, UniProt P14779, G539A/N538A)
T8 sequence (P14779 472-650 N538A/G539A): T1 sequence (P14779 472-650 Y537H) with H66Y, N67A, G68A

[9] = target: T9, FMN-binding domain (FMN domain) of flavocytochrome P450BM-3 (BM3) (Priestia megaterium, UniProt P14779)
T9 sequence (P14779 472-650): T1 sequence (P14779 472-650 Y537H) with H66Y

Cc1cc2nc3c(=O)[nH]c(=O)nc-3n(C[C@H](O)[C@H](O)[C@H](O)COP(=O)(O)O)c2cc1C [FMN]
Kd [1]: 350 ± 72 nM
Kd [2]: 30 ± 5 nM
Kd [3]: 400 ± 100 nM
Kd [4]: 140 ± 33 nM
Kd [5]: 43 ± 7 nM
Kd [6]: 30 ± 5 nM
Kd [7]: 2100 ± 600 nM
Kd [8]: 1000 ± 200 nM
Kd [9]: 41 ± 18 nM
